Biological target: transferrin receptor (hTfR) (Homo sapiens, UniProt P02786)
Test: Intermolecular interaction evaluation test between transferrin receptor (hTfR) and peptide-nucleic acid conjugate using surface plasmon resonance (SPR)
Format: binding
Description: Intermolecular interaction evaluation test between transferrin receptor (hTfR) and peptide using surface plasmon resonance (SPR)
The various synthesized peptide-nucleic acid conjugates were tested for intermolecular interaction by surface plasmon resonance (SPR) of the peptide-nucleic acid conjugate with transferrin receptor (hTfR) using the method shown below. The specific test method is shown below.
NTA sensor chip (Global Life Science Technologies Japan Co., Ltd.) was inserted into Biacore T200 (Global Life Science Technologies Japan Co., Ltd.), prime operation was performed three times with running buffer: 10 mM HEPES pH 8.0 (Nacalai Tesque Co., Ltd.), 150 mM NaCl (Nacalai Tesque Co., Ltd.), 0.05% Tween 20 (Nacalai Tesque Co., Ltd.), 0.1% BSA (SIGMA-ALDRICH), and 1.0% DMSO (FUJIFILM Wako Pure Chemical Corporation), and equilibrated at a flow rate of 30 μL/min. 350 mM EDTA solution was reacted for 60 seconds at a flow rate of 10 μL/min, 0.5 mM NiCl2 solution (Kishida Chemical) was reacted for 60 seconds at a flow rate of 10 μL/min, and the NTA sensor chip was washed with 3 mM EDTA solution (Nacalai Tesque Co., Ltd.) for 60 seconds at a flow rate of 10 μL/min. After mixing 50 μL each of […] EDC solution (Global Life Science Technologies Japan Co., Ltd.) and […] NHS solution (Global Life Science Technologies Japan Co., Ltd.), the mixture was reacted for 420 seconds at a flow rate of 10 μL/min. 150 μL of a 0.5 μM hTfR solution was prepared by diluting with a running buffer and reacted for 300 seconds at a flow rate of 10 μL/min to immobilize hTfR on the NTA sensor chip. After immobilization, capping was performed by reacting with a 1.0 M ethanolamine aqueous solution (Global Life Science Technologies Japan Co., Ltd.) at a flow rate of 10 μL/min for 420 seconds. A peptide-nucleic acid conjugate solution adjusted to 10 mM in DMSO solution was diluted with running buffer to a final concentration of 10 μM peptide-nucleic acid conjugate solution, and 100 nM, 50 nM, 25 nM, 10 nM, 5 nM peptide-nucleic acid conjugate solutions were prepared. Using the aforementioned samples, the kinetics of the peptide against hTfR was obtained by SPR measurement.
The kinetics evaluation model was Single Cycle Kinetics, and curve fitting was performed using Biacore T200 Evaluation Software Version 3.0 (Global Life Science Technologies Japan Co., Ltd.). The obtained sensorgram was subjected to curve fitting using the least squares method, and the binding of the peptide-nucleic acid conjugate to hTfR was evaluated by determining the KD value.

Sequence of transferrin receptor (hTfR) (P02786 whole entry): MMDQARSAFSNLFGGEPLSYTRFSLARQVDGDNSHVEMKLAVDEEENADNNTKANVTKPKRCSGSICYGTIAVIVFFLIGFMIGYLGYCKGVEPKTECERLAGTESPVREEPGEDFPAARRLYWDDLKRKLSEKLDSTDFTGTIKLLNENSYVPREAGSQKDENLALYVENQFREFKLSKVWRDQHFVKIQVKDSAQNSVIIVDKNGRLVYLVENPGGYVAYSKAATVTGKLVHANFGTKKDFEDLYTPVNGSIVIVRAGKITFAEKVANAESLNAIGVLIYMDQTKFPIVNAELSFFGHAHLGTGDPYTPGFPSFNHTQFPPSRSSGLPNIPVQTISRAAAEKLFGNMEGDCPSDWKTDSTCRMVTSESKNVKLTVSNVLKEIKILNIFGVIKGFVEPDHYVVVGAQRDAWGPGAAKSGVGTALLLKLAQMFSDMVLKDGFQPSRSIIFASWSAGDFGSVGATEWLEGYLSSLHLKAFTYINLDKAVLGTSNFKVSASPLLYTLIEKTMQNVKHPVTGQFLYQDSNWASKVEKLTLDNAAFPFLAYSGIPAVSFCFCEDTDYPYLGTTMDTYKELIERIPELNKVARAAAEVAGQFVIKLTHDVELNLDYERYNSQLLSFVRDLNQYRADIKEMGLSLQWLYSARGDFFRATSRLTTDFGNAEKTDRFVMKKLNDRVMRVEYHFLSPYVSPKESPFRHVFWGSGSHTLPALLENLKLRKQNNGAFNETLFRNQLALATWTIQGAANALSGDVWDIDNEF

CC[C@H](C)[C@@H]1NC(=O)[C@H](Cc2ccc(O)cc2)NC(=O)[C@H](Cc2ccc(O)cc2)NC(=O)[C@H](CC(N)=O)NC(=O)[C@H](Cc2c[nH]c3ccccc23)NC(=O)[C@H](C(C)C)NC(=O)[C@H](Cc2ccccc2)N(C)C(=O)[C@H](C(C)C)NC(=O)[C@H](C)NC(=O)CSC[C@@H](C(=O)NCC(=O)N[C@@H](CCCCn2nnc3c2CCC2C(CC3)C2COC(=O)NCCOCCOCC(=O)N[C@@H](CCCNC(=N)N)C(=O)N[C@@H](CCCNC(=N)N)C(=O)N[C@@H](CCCNC(=N)N)C(=O)NCCC(=O)N2C[C@@H](COP(=O)(N(C)C)N3C[C@@H](COP(=O)(N(C)C)N4C[C@@H](COP(=O)(N(C)C)N5C[C@@H](COP(=O)(N(C)C)N6C[C@@H](COP(=O)(N(C)C)N7C[C@@H](COP(=O)(N(C)C)N8C[C@@H](COP(=O)(N(C)C)N9C[C@@H](COP(=O)(N(C)C)N%10C[C@@H](COP(=O)(N(C)C)N%11C[C@@H](COP(=O)(N(C)C)N%12C[C@@H](COP(=O)(N(C)C)N%13C[C@@H](COP(=O)(N(C)C)N%14C[C@@H](COP(=O)(N(C)C)N%15C[C@@H](COP(=O)(N(C)C)N%16C[C@@H](COP(=O)(N(C)C)N%17C[C@@H](COP(=O)(N(C)C)N%18C[C@@H](COP(=O)(N(C)C)N%19C[C@@H](COP(=O)(N(C)C)N%20C[C@@H](COP(=O)(N(C)C)N%21C[C@@H](COP(=O)(N(C)C)N%22C[C@@H](COP(=O)(N(C)C)N%23C[C@@H](COP(=O)(N(C)C)N%24C[C@@H](COP(=O)(N(C)C)N%25C[C@@H](COP(=O)(N(C)C)N%26C[C@@H](COP(=O)(N(C)C)N(C)CC(N)=O)O[C@@H](n%27cnc%28c(=O)[nH]c(N)nc%28%27)C%26)O[C@@H](n%26cc(C)c(=O)[nH]c%26=O)C%25)O[C@@H](n%25cc(C)c(=O)[nH]c%25=O)C%24)O[C@@H](n%24cnc%25c(=O)[nH]c(N)nc%25%24)C%23)O[C@@H](n%23ccc(N)nc%23=O)C%22)O[C@@H](n%22ccc(N)nc%22=O)C%21)O[C@@H](n%21cc(C)c(=O)[nH]c%21=O)C%20)O[C@@H](n%20ccc(N)nc%20=O)C%19)O[C@@H](n%19ccc(N)nc%19=O)C%18)O[C@@H](n%18cnc%19c(=O)[nH]c(N)nc%19%18)C%17)O[C@@H](n%17cnc%18c(=O)[nH]c(N)nc%18%17)C%16)O[C@@H](n%16cc(C)c(=O)[nH]c%16=O)C%15)O[C@@H](n%15cc(C)c(=O)[nH]c%15=O)C%14)O[C@@H](n%14ccc(N)nc%14=O)C%13)O[C@@H](n%13cc(C)c(=O)[nH]c%13=O)C%12)O[C@@H](n%12cnc%13c(=O)[nH]c(N)nc%13%12)C%11)O[C@@H](n%11cnc%12c(N)ncnc%12%11)C%10)O[C@@H](n%10cnc%11c(N)ncnc%11%10)C9)O[C@@H](n9cnc%10c(=O)[nH]c(N)nc%109)C8)O[C@@H](n8cnc9c(=O)[nH]c(N)nc98)C7)O[C@@H](n7cc(C)c(=O)[nH]c7=O)C6)O[C@@H](n6cnc7c(=O)[nH]c(N)nc76)C5)O[C@@H](n5cc(C)c(=O)[nH]c5=O)C4)O[C@@H](n4cc(C)c(=O)[nH]c4=O)C3)O[C@@H](n3ccc(N)nc3=O)C2)C(N)=O)NC(=O)[C@H](Cc2ccc(O)cc2)N(C)C(=O)[C@H](Cc2ccc(O)cc2)NC(=O)[C@H](CCCNC(=N)N)NC(=O)[C@H](CCCNC(=N)N)NC(=O)[C@H]([C@@H](C)CC)NC1=O (some centres unmarked) [Example 57]
Kd: < 100 nM

CC[C@H](C)[C@@H]1NC(=O)[C@H](Cc2ccc(O)cc2)NC(=O)[C@H](Cc2ccc(O)cc2)NC(=O)[C@H](CC(N)=O)NC(=O)[C@H](Cc2c[nH]c3ccccc23)NC(=O)[C@H](C(C)C)NC(=O)[C@H](Cc2ccccc2)N(C)C(=O)[C@H](C(C)C)NC(=O)[C@H](C)NC(=O)CSC[C@@H](C(=O)NCC(=O)N[C@@H](CCCCn2cc(CCC(=O)NCCOCCOCC(=O)N[C@@H](CCCCN)C(=O)N[C@@H](CCCCN)C(=O)N[C@@H](CCCCN)C(=O)NCC(=O)N3C[C@@H](COP(=O)(N(C)C)N4C[C@@H](COP(=O)(N(C)C)N5C[C@@H](COP(=O)(N(C)C)N6C[C@@H](COP(=O)(N(C)C)N7C[C@@H](COP(=O)(N(C)C)N8C[C@@H](COP(=O)(N(C)C)N9C[C@@H](COP(=O)(N(C)C)N%10C[C@@H](COP(=O)(N(C)C)N%11C[C@@H](COP(=O)(N(C)C)N%12C[C@@H](COP(=O)(N(C)C)N%13C[C@@H](COP(=O)(N(C)C)N%14C[C@@H](COP(=O)(N(C)C)N%15C[C@@H](COP(=O)(N(C)C)N%16C[C@@H](COP(=O)(N(C)C)N%17C[C@@H](COP(=O)(N(C)C)N%18C[C@@H](COP(=O)(N(C)C)N%19C[C@@H](COP(=O)(N(C)C)N%20C[C@@H](COP(=O)(N(C)C)N%21C[C@@H](COP(=O)(N(C)C)N%22C[C@@H](COP(=O)(N(C)C)N%23C[C@@H](COP(=O)(N(C)C)N%24C[C@@H](COP(=O)(N(C)C)N%25C[C@@H](COP(=O)(N(C)C)N%26C[C@@H](COP(=O)(N(C)C)N%27C[C@@H](COP(=O)(N(C)C)N(C)CC(N)=O)O[C@@H](n%28cnc%29c(=O)[nH]c(N)nc%29%28)C%27)O[C@@H](n%27cnc%28c(=O)[nH]c(N)nc%28%27)C%26)O[C@@H](n%26ccc(N)nc%26=O)C%25)O[C@@H](n%25ccc(N)nc%25=O)C%24)O[C@@H](n%24cnc%25c(N)ncnc%25%24)C%23)O[C@@H](n%23cnc%24c(N)ncnc%24%23)C%22)O[C@@H](n%22cnc%23c(N)ncnc%23%22)C%21)O[C@@H](n%21ccc(N)nc%21=O)C%20)O[C@@H](n%20ccc(N)nc%20=O)C%19)O[C@@H](n%19cc(C)c(=O)[nH]c%19=O)C%18)O[C@@H](n%18ccc(N)nc%18=O)C%17)O[C@@H](n%17cnc%18c(=O)[nH]c(N)nc%18%17)C%16)O[C@@H](n%16cnc%17c(=O)[nH]c(N)nc%17%16)C%15)O[C@@H](n%15ccc(N)nc%15=O)C%14)O[C@@H](n%14cc(C)c(=O)[nH]c%14=O)C%13)O[C@@H](n%13cc(C)c(=O)[nH]c%13=O)C%12)O[C@@H](n%12cnc%13c(N)ncnc%13%12)C%11)O[C@@H](n%11ccc(N)nc%11=O)C%10)O[C@@H](n%10ccc(N)nc%10=O)C9)O[C@@H](n9cc(C)c(=O)[nH]c9=O)C8)O[C@@H](n8cnc9c(=O)[nH]c(N)nc98)C7)O[C@@H](n7cnc8c(N)ncnc87)C6)O[C@@H](n6cnc7c(N)ncnc76)C5)O[C@@H](n5cnc6c(N)ncnc65)C4)O[C@@H](n4cc(C)c(=O)[nH]c4=O)C3)nn2)C(N)=O)NC(=O)[C@H](Cc2ccc(O)cc2)N(C)C(=O)[C@H](Cc2ccc(O)cc2)NC(=O)[C@H](CCCNC(=N)N)NC(=O)[C@H](CCCNC(=N)N)NC(=O)[C@H]([C@@H](C)CC)NC1=O (some centres unmarked) [Example 61]
Kd: < 100 nM

Reference: patent US20240390508A1, “HUMAN TRANSFERRIN RECEPTOR BINDING PEPTIDE-DRUG CONJUGATE” (priority 2021, published 2024)
